{
  "source": "paper PMC2691174",
  "about": "(Cancer, 2009)",
  "key": {"[1]": {"settings": "for tmax Mean(Range): stratum A (no EIAEDs, N=14), imatinib 400 mg/day"}, "[2]": {"system": "recurrent GBM patients", "settings": "single agent; cited from earlier work"}, "[3]": {"assay": "Plasma pharmacokinetics of hydroxyurea", "settings": "for AUC0−12 / 0−12 Mean(Range) / Cl/F Mean(Range) / Cmax/D Mean(Range) / t1/2 Mean(Range) / tmax Mean(Range): hydroxyurea 500 mg twice-a-day"}, "[4]": {"system": "PDGFRβ", "settings": "cited from earlier work"}, "[5]": {"system": "recurrent malignant glioma patients", "assay": "Phase I dose escalation: MTD, DLT and toxicity", "settings": "all patients, with imatinib and hydroxyurea"}, "[6]": {"assay": "Plasma pharmacokinetics of vatalanib", "type": "in vivo, human", "settings": "for Tmax: human, plasma, oral, tmax Mean(Range)"}, "[7]": {"system": "patients with newly diagnosed glioblastoma (GBM)", "settings": "radiotherapy plus temozolomide; cited from earlier work"}, "[8]": {"settings": "stratum A (no EIAEDs, N=14), day 8 of cycle 1"}, "[9]": {"settings": "stratum A (no EIAEDs, N=14), day 35 of cycle 1"}, "[10]": {"settings": "stratum B (on EIAEDs, N=6), day 8 of cycle 1"}, "[11]": {"settings": "stratum B (on EIAEDs, N=6), day 35 of cycle 1"}, "[12]": {"settings": "stratum B (on EIAEDs, N=8), day 7 (vatalanib alone, steady state)"}, "[13]": {"settings": "stratum B (on EIAEDs, N=8), day 35 (with imatinib and hydroxyurea)"}, "[14]": {"settings": "stratum A (no EIAEDs, N=15), day 7 (vatalanib alone, steady state)"}, "[15]": {"settings": "stratum A (no EIAEDs, N=15), day 35 (with imatinib and hydroxyurea)"}},
  "note": "Where two headings read alike, the source gives them in different places.",
  "data": [
    {"smiles": "Cc1ccc(NC(=O)c2ccc(CN3CCN(C)CC3)cc2)cc1Nc1nccc(-c2cccnc2)n1", "note": "[Imatinib]", "values": [
      {"measurement": "effect of hydroxyurea on imatinib pharmacokinetics", "setting": "[1]; fully apparent at day 35, more pronounced in patients taking EIAEDs", "value": "increase in Cmax/D and decreases in CL/F and V/F"}
    ]},
    {"smiles": "Cc1ccc(NC(=O)c2ccc(CN3CCNCC3)cc2)cc1Nc1nccc(-c2cccnc2)n1", "note": "[CGP74588]", "values": [
      {"measurement": "tmax Mean(Range)", "setting": "[1]; day 8 of cycle 1", "value": "3.43(2.00−6.00) h"},
      {"measurement": "tmax Mean(Range)", "setting": "[1]; day 35 of cycle 1", "value": "3.57(1.00−8.00) h"}
    ]},
    {"smiles": "COc1cc2c(Oc3ccc4[nH]c(C)cc4c3F)ncnc2cc1OCCCN1CCCC1", "note": "[cedarinib]", "values": [
      {"measurement": "median PFS", "setting": "[2]", "value": 16, "unit": "weeks"},
      {"measurement": "radiographic response rate", "setting": "[2]", "value": 50, "unit": "%"}
    ]},
    {"smiles": "NC(=O)NO", "note": "[Hydroxyurea]", "values": [
      {"measurement": "effect of EIAEDs or time on hydroxyurea pharmacokinetics", "setting": "[3]; in vivo", "value": "no relevant effect"},
      {"measurement": "AUC0−12 / 0−12 Mean(Range)", "setting": "[3]; [8]", "value": "50.4(9.50−91.1) ng/mL*h/mg"},
      {"measurement": "Cl/F Mean(Range)", "setting": "[3]; [8]", "value": "15.2(5.50−52.5) L/h"},
      {"measurement": "Cmax/D Mean(Range)", "setting": "[3]; [8]", "value": "18.5(6.80−29.6) ng/mL/mg"},
      {"measurement": "t1/2 Mean(Range)", "setting": "[3]; [8]", "value": "4.84(1.60−12.5) h"},
      {"measurement": "tmax Mean(Range)", "setting": "[3]; [8]", "value": "1.29(0.50−2.00) h"},
      {"measurement": "AUC0−12 / 0−12 Mean(Range)", "setting": "[3]; [9]", "value": "41.7(13.0−84.5) ng/mL*h/mg"},
      {"measurement": "Cl/F Mean(Range)", "setting": "[3]; [9]", "value": "15.4(5.90−38.4) L/h"},
      {"measurement": "Cmax/D Mean(Range)", "setting": "[3]; [9]", "value": "19.4(5.60−32.6) ng/mL/mg"},
      {"measurement": "t1/2 Mean(Range)", "setting": "[3]; [9]", "value": "3.29(1.40−6.80) h"},
      {"measurement": "tmax Mean(Range)", "setting": "[3]; [9]", "value": "1.30(0.50−4.00) h"},
      {"measurement": "AUC0−12 / 0−12 Mean(Range)", "setting": "[3]; [10]", "value": "37.38(18.1−60.4) ng/mL*h/mg"},
      {"measurement": "Cl/F Mean(Range)", "setting": "[3]; [10]", "value": "16.4(8.3−27.6) L/h"},
      {"measurement": "Cmax/D Mean(Range)", "setting": "[3]; [10]", "value": "16.5(7.60−35.0) ng/mL/mg"},
      {"measurement": "t1/2 Mean(Range)", "setting": "[3]; [10]", "value": "3.5(2.70−5.40) h"},
      {"measurement": "tmax Mean(Range)", "setting": "[3]; [10]", "value": "1.80(0.50−4.00) h"},
      {"measurement": "AUC0−12 / 0−12 Mean(Range)", "setting": "[3]; [11]", "value": "41.4(17.0−70.1) ng/mL*h/mg"},
      {"measurement": "Cl/F Mean(Range)", "setting": "[3]; [11]", "value": "15.4(7.10−29.4) L/h"},
      {"measurement": "Cmax/D Mean(Range)", "setting": "[3]; [11]", "value": "19.0(7.80−31.4) ng/mL/mg"},
      {"measurement": "t1/2 Mean(Range)", "setting": "[3]; [11]", "value": "7.12(2.50−21.5) h"},
      {"measurement": "tmax Mean(Range)", "setting": "[3]; [11]", "value": "0.90(0.50−1.50) h"}
    ]},
    {"smiles": "Clc1ccc(Nc2nnc(Cc3ccncc3)c3ccccc23)cc1", "note": "[vatalanib]", "values": [
      {"measurement": "PDGFRβ IC50 relative to that of imatinib", "setting": "[4]", "value": "approximately twice"},
      {"measurement": "recommended vatalanib dose", "setting": "[5]; irrespective of EIAEDs", "value": 1000, "unit": "mg twice-a-day"},
      {"measurement": "MTD of vatalanib", "setting": "[5]; continuous daily schedule", "value": 1000, "unit": "mg twice-a-day"},
      {"measurement": "effect of vatalanib dose on vatalanib pharmacokinetic parameters", "setting": "[6]; 500 to 1250 mg twice daily", "value": "no significant effect"},
      {"measurement": "decrease of vatalanib Cmax/D by use of EIAEDs", "setting": "[6]; day 7", "value": "approximately 3 fold"},
      {"measurement": "effect of EIAEDs on vatalanib plasma t1/2", "setting": "[6]; day 7", "value": "not significantly affecting"},
      {"measurement": "increase of vatalanib CL/F by use of EIAEDs", "setting": "[6]; day 7", "value": "approximately 3 fold"},
      {"measurement": "increase of vatalanib V/F by use of EIAEDs", "setting": "[6]; day 7", "value": "more than 3 fold"},
      {"measurement": "Tmax", "setting": "[6]; [12]", "value": 1.79, "unit": "h"},
      {"measurement": "Tmax", "setting": "[6]; [13]", "value": 2.13, "unit": "h"},
      {"measurement": "AUC0−12 / 0−12 Mean(Range)", "setting": "[6]; [14]", "value": "11.1(2.23−16.1) ng/mL*h/mg"},
      {"measurement": "Cl/F Mean(Range)", "setting": "[6]; [14]", "value": "122(62.0−448) L/h"},
      {"measurement": "Cmax/D Mean(Range)", "setting": "[6]; [14]", "value": "3.12(0.72−5.03) ng/mL/mg"},
      {"measurement": "AUC0−12 / 0−12 Mean(Range)", "setting": "[6]; [15]", "value": "10.4(3.28−25.5) ng/mL*h/mg"},
      {"measurement": "Cl/F Mean(Range)", "setting": "[6]; [15]", "value": "137(39.3−305) L/h"},
      {"measurement": "Cmax/D Mean(Range)", "setting": "[6]; [15]", "value": "2.82(0.82−7.38) ng/mL/mg"},
      {"measurement": "AUC0−12 / 0−12 Mean(Range)", "setting": "[6]; [12]", "value": "4.51(1.31−12.1) ng/mL*h/mg"},
      {"measurement": "Cl/F Mean(Range)", "setting": "[6]; [12]", "value": "377(82.3−765) L/h"},
      {"measurement": "Cmax/D Mean(Range)", "setting": "[6]; [12]", "value": "1.15(0.40−2.46) ng/mL/mg"},
      {"measurement": "AUC0−12 / 0−12 Mean(Range)", "setting": "[6]; [13]", "value": "6.75(0.73−17.7) ng/mL*h/mg"},
      {"measurement": "Cl/F Mean(Range)", "setting": "[6]; [13]", "value": "368(56.5−1371) L/h"},
      {"measurement": "Cmax/D Mean(Range)", "setting": "[6]; [13]", "value": "1.91(0.16−6.52) ng/mL/mg"}
    ]},
    {"smiles": "Cn1nnc2c(C(N)=O)ncn2c1=O", "note": "[temozolomide]", "values": [
      {"measurement": "median progression-free survival (PFS)", "setting": "[7]", "value": 6.9, "unit": "months"}
    ]}
  ]
}
